Data: patent publication US20230364057A1, “BACTERIAL DNA GYRASE INHIBITORS AND METHODS OF USE THEREOF” (THE FLORIDA INTERNATIONAL UNIVERSITY BOARD OF TRUSTEES, priority 2022, published 2023)
≈ marks a conversion by molar mass, not a printed value. Where “and” joins values, the source holds several entries; their conditions need not be identical. Equal values may be shown once. Entries after “also recorded” stand apart in the source; their conditions may differ. Read-outs that look alike come from different tables or passages of the source.

Key:
[1] = biological target: human DNA topoisomerase IIα (Homo sapiens (Human), UniProt P11388); test: Agarose gel-based inhibition assay against human DNA topoisomerase IIα; type: biochemical; settings: gallates at 100 µM
E. coli DNA gyrase [2] = biological target: T1, E. coli DNA gyrase (Escherichia coli (strain K12), UniProt P0AES4+P0AES6); test: E. coli DNA gyrase ATPase assay; type: biochemical; settings: AB-MECA and gallates at 100 µM
Experimental: E. coli DNA gyrase ATPase assays were performed in 60 µL of 1 ×gyrase ATPase buffer (10 mM Tris.HCl (pH 7.5), 0.2 mM EDTA, 1 mM magnesium chloride, 1 mM DTT, and 2% (w/v) glycerol) containing 50 nM E. coli DNA gyrase, 200 ng rx pAB1, 0.8 mM Phosphoenol pyruvate, 1.2 units of Pyruvate kinase, 1.7 units of lactate dehydrogenase, and 0.4 mM of NADH at 37° C. After the reaction mixtures are incubated on ice for 5 minutes, 2 mM of ATP is added to initiate the reaction. Absorbance at OD340nm is monitored for up to 30 minutes at 37° C. in a spectrophotometer.

[3] = biological target: human DNA topoisomerase I (Homo sapiens (Human), UniProt P11387); test: Human DNA topoisomerase I inhibition; type: biochemical; settings: gallates at 100 µM
E. coli DNA gyrase [4] = biological target: T1, E. coli DNA gyrase; test: biochemical; type: biochemical
Mtb DNA gyrase = Mtb DNA gyrase (Mycobacterium tuberculosis (strain ATCC 25618 / H37Rv), UniProt P9WG45+P9WG47); test: Mtb DNA gyrase inhibition assay (gel-based); type: biochemical; settings: for IC50: Table 10, read-out: IC50 (µM) Mtb gyrase
Experimental: The IC50 against E. coli (A) and Mtb (C) gyrase were determined using the gel-based gyrase inhibition assays. The gyrase mediated DNA cleavage assays (B and D) were performed using pBR322. (A) 229 inhibits E. coli gyrase. Lane 1, rx pAB1. […] Lane 1, rx pAB1. […] 100 µM of CPDs were used. Symbols rx, nk, In, and sc represent relaxed, nicked, linear, and supercoiled DNA, respectively.
Agarose gel-based DNA gyrase inhibition assays were performed in 30 µL of 1 ×gyrase buffer (35 mM Tris-HCl, 24 mM KCl, 4 mM MgCl2, 2 mM DTT, 1.75 mM ATP, 0.1 mg/mL BSA, 6.5% glycerol, pH7.5) containing 400 ng of rx pAB1 at 37° C. 100 ng of DNA gyrase was used to supercoil the rx pAB1 in the presence of different concentrations of a gyrase inhibitor. After 15 minutes of incubation with the inhibitor at 37° C., all reactions were stopped with 1 µL of stop solution (3% SDS and 250 mM EDTA). Samples were analyzed by electrophoresis in 1% w/v agarose gels followed by ethidium bromide staining and photographed under UV light.

[5] = biological target: E. coli DNA topoisomerase I (Escherichia coli (strain K12), UniProt P06612); test: E. coli DNA topoisomerase I inhibition; type: biochemical; settings: gallates at 100 µM
[6] = biological target: T2, E. coli DNA topoisomerase IV (Escherichia coli (strain K12), UniProt P0AFI2+P20083); test: E. coli DNA topoisomerase IV relaxation assay (gel-based); type: biochemical; settings: for IC50: IC50 Topoisomerase IV Gel-based, Table 8
Experimental: (§1) Relaxation assays by E. coli DNA topoisomerase IV and the ATPase assays were performed. […] Lane 1 is supercoiled plasmid pAB1. […] The supercoiled, fluorescently-labeled plasmid pAB1_FL905 was used.

B. subtilis (ATCC 6633) = test: Minimum inhibitory concentration, broth microdilution; settings: Bacillus subtilis, ATCC6633, read-out: MIC B. subtilis ATCC 6633
Experimental: (§2) Antibacterial minimum inhibitory concentrations (MICs) were obtained from three independent experiments using broth microdilution methods in 96-well plates according to Clinical and Laboratory Standards Institute guidelines. Cells were culture from singles colonies in MHIIB medium for 24 h at 37° C. in agitation (200 RPM). The cultures were then diluted using the same media to reach an OD600 of 0.1. Then, 50 µL of the diluted cultures were added to the plates holding 50 µL of serially diluted compounds in MHIIB. The plates were incubated at 37° C. for 20 h. The starting inoculum was fixated to 10^5 colony-forming units per ml.

E. coli imp = test: microbe, parasite or virus in culture; settings: Escherichia coli, read-out: MIC E. coli imp BAS3023
Experimental: as §2

E. coli DNA gyrase [7] = biological target: T1, E. coli DNA gyrase; test: Agarose gel-based DNA gyrase inhibition assay; type: biochemical; settings: Table 8; read-out: IC50 Gyrase Gel-based
Experimental: 100 ng of DNA gyrase was used to supercoil the rx pAB1 in the presence of different concentrations of a gyrase inhibitor. […] Samples were analyzed by electrophoresis in 1% w/v agarose gels followed by ethidium bromide staining and photographed under UV light.

MRSA = test: Minimum inhibitory concentration, broth microdilution; settings: Staphylococcus aureus
Experimental: as §2

S. aureus (ATCC 14775) = test: as above; settings: Staphylococcus aureus
Experimental: as §2

E. coli (ATCC 25922) = test: as above; settings: Escherichia coli
E. coli DNA gyrase [8] = biological target: T1, E. coli DNA gyrase; test: SDFQ-based DNA gyrase inhibition assay; type: biochemical; settings: Table 8; read-out: IC50 Gyrase SDFQ
Experimental: 100 ng of DNA gyrase was used to supercoil the rx pAB1_FL905 in the presence of different concentrations of a gyrase inhibitor. […] The IC50 values were estimated by nonlinear fitting of the following equation: […]
where F is the fluorescence intensity at the x concentration of an min inhibitor. Fmax and Fmin are the maximum and minimum fluorescence of the DNA sample, respectively. P is a slope parameter.

[9] = biological target: T2, E. coli DNA topoisomerase IV; test: SDFQ-based DNA relaxation assay with E. coli DNA topoisomerase IV; type: biochemical
Experimental: as §1

[10] = tested on: NCI panel of 60 cancer cell lines; settings: up to 1 mM; results of NCI DTP; cited from earlier work
in vitro = settings: human
M. abscessus = test: MIC against M. abscessus; type: cell-based, Mycobacterium abscessus; settings: Mycobacteroides abscessus
Mtb = Mtb whole cell assay (% inhibition, MIC); type: cell-based, Mycobacterium tuberculosis; settings: Mycobacterium tuberculosis
E. coli DNA gyrase [11] = biological target: T1, E. coli DNA gyrase; test: SDFQ HTS primary assay (1536-well, pAB1_FL905); type: biochemical; settings: for inhibition at 5 µM: read-out: inhibition activities against E. coli DNA gyrase
Experimental: SDFQ HTS primary assay using pAB1_FL905 was performed in 2 µL of (1 xDNA gyrase buffer: 20 mM Tris-Acetate pH 7.9, 50 mM KAc, 10 mM MgCl2, 2 mM DTT, 1 mM ATP, 0.1 mg/mL BSA). […] 3) Spun plate at 800 rpm for 30 seconds.

E. coli DNA gyrase [12] = biological target: T1, E. coli DNA gyrase; test: DNA gyrase mediated DNA cleavage assay; type: biochemical; settings: pBR322
Experimental: 250 ng of supercoiled pBR322 plasmid were incubated with 50 nM of E. coli DNA gyrase in reactions containing 35 mM Tris-HCl, 24 mM KCl, 4 mM MgCl2, 2 mM DTT, 0.1 mg/mL BSA, 6.5% glycerol, and 1.75 mM ATP, in presence of 200 µM of compounds, at 37° C. for 15 min. Then, 0.2% (w/v) of SDS and 0.1 mg/mL proteinase K were added, and samples were incubated at 37° C. for 1 h. […] Samples were examined by electrophoresis in 1% w/v agarose gel containing 0.5 µg/mL ethidium bromide and photographed under UV light.

[13] = ATCC33591 / MRSA, read-out: MIC MRSA ATCC 33591
[14] = ATCC14775, read-out: MIC S. aureus ATCC 14775
[15] = ATCC25922, read-out: MIC E coli ATCC 25922, Table 9
[16] = ATCC14775, read-out: MIC (µM) Sa
[17] = read-out: IC50 against E. coli DNA gyrase
[18] = ATCCBAA44 / MRSA, read-out: MIC S. aureus (MRSA) ATCC BAA44

human DNA topoisomerase IIα, sequence (P11388 whole entry): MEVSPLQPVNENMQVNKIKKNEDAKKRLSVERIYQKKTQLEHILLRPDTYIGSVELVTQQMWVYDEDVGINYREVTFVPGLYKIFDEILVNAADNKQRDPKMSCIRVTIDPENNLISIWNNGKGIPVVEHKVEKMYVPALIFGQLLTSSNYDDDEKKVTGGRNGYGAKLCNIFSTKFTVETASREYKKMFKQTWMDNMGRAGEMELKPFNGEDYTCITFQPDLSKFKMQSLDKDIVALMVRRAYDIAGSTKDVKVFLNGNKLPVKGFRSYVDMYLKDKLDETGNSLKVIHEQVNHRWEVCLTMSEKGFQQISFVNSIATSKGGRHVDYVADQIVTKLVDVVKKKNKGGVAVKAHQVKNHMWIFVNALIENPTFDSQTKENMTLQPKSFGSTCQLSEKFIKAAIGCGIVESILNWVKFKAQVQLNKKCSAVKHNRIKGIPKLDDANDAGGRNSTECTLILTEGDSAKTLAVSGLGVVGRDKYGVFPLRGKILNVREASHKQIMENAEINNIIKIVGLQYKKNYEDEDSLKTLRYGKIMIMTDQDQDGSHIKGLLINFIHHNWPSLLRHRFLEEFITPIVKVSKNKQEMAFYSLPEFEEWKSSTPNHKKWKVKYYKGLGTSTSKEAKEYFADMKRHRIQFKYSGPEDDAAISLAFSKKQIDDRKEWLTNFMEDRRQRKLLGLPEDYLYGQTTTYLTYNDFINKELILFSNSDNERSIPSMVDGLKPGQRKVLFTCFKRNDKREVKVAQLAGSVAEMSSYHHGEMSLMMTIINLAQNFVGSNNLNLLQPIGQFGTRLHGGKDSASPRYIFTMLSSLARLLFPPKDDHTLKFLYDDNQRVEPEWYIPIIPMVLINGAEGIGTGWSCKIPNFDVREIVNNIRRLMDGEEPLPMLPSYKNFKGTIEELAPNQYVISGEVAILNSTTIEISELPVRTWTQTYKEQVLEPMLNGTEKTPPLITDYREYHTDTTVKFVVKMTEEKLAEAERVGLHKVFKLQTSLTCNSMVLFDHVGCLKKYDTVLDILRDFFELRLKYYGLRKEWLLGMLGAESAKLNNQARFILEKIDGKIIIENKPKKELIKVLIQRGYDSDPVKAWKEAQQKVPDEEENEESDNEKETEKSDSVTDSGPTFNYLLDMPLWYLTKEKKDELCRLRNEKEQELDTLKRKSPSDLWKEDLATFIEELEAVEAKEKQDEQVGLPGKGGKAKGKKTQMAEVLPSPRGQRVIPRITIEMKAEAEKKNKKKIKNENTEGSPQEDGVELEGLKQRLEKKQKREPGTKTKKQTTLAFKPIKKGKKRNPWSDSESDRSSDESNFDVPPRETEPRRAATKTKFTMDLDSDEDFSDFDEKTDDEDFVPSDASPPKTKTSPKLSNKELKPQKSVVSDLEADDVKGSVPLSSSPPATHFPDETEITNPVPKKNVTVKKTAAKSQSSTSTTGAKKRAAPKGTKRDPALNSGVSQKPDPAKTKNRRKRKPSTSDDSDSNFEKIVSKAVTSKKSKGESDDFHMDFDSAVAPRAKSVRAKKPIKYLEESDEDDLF
human DNA topoisomerase I, sequence (P11387 whole entry): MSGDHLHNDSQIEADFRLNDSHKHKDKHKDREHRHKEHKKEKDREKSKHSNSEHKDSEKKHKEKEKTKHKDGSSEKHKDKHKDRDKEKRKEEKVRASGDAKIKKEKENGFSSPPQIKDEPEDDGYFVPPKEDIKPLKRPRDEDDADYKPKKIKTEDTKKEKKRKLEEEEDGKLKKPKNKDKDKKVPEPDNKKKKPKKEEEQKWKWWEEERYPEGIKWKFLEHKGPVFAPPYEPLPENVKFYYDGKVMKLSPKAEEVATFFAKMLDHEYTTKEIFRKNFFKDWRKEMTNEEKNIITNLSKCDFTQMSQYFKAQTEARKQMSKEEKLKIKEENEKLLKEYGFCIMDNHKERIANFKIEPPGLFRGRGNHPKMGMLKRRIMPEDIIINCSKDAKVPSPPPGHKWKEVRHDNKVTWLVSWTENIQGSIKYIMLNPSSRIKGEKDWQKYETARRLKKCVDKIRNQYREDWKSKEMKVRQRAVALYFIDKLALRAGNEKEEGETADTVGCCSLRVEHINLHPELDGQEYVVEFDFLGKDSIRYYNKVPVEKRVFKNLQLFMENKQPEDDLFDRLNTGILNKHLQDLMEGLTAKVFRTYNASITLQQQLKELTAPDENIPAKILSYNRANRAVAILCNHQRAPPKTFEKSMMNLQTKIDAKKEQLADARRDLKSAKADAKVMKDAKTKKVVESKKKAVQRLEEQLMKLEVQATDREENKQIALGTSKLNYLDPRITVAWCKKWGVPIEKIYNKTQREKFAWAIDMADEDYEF
E. coli DNA topoisomerase I, sequence (P06612 whole entry, looked up): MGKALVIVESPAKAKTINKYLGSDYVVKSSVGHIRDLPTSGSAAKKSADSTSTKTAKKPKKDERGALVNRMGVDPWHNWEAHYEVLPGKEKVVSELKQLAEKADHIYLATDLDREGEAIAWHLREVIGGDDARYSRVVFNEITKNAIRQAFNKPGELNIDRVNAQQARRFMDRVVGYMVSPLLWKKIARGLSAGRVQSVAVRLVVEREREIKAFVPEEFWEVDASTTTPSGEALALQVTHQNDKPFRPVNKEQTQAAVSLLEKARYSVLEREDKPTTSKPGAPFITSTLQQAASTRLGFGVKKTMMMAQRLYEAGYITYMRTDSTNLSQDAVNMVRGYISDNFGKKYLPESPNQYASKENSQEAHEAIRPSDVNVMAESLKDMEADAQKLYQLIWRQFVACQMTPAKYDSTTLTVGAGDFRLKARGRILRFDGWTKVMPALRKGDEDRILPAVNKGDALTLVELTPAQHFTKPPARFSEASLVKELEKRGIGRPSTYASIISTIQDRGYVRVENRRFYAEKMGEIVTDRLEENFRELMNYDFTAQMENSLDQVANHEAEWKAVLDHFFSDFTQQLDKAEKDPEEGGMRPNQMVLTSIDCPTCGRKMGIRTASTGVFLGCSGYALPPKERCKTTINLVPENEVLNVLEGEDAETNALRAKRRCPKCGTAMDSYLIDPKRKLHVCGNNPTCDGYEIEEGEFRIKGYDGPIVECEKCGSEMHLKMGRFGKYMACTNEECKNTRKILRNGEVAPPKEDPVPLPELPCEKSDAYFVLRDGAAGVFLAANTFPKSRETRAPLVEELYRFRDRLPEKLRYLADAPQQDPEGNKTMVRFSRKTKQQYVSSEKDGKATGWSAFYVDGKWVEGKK
T2 sequence (P0AFI2 whole entry, looked up): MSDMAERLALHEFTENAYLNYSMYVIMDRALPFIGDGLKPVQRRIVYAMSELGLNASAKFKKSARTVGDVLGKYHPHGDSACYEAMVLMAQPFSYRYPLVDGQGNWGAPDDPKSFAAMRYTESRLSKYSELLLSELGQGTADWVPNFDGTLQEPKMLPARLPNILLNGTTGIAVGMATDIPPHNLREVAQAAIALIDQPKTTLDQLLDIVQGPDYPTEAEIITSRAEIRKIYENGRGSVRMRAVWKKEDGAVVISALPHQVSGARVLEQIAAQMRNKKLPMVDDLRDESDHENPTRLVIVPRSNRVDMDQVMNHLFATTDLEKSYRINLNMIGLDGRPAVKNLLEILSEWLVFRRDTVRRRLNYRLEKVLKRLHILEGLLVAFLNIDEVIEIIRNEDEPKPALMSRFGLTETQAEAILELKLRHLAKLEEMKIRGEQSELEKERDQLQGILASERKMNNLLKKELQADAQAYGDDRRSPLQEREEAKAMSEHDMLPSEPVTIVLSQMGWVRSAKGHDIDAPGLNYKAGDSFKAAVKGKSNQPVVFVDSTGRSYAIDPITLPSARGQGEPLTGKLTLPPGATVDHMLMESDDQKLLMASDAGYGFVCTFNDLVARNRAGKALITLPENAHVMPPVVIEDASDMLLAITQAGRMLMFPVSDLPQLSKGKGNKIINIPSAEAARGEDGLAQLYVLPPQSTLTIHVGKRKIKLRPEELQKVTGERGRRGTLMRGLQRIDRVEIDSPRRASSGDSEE
T2 sequence (P20083 whole entry, looked up): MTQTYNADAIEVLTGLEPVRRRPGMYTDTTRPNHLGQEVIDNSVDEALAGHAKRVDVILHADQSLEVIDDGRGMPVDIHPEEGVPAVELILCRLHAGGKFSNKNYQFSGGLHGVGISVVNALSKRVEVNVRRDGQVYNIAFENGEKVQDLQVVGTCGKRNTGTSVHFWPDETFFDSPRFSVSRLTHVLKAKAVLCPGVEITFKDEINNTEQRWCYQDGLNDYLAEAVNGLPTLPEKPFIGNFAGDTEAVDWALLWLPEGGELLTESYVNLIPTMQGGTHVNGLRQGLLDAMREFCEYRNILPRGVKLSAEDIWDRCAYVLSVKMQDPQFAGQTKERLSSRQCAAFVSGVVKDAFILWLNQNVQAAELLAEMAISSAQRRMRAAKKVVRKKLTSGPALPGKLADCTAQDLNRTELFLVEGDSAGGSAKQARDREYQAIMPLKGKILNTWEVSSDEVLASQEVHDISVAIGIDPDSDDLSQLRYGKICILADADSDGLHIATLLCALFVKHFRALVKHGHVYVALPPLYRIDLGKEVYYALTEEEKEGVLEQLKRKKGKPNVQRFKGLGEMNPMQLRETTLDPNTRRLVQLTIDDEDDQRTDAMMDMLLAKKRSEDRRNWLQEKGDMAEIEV

| Structure (SMILES) | inhibition of E. coli DNA topoisomerase IV [6] | MIC (B. subtilis (ATCC 6633)) | MIC (E. coli imp) [µM] | IC50 (E. coli DNA gyrase [7]) [µM] | MIC (MRSA; [13]) [µM] | MIC (S. aureus (ATCC 14775); [14]) | MIC (E. coli (ATCC 25922); [15]) [µM] | IC50 (E. coli DNA gyrase [8]) [µM] | IC50 [9] [µM] | IC50 [6] [µM] | other results |
| --- | --- | --- | --- | --- | --- | --- | --- | --- | --- | --- | --- |
| CNC(=O)[C@H]1O[C@@H](n2cnc3c(NCc4ccc(N)cc4)ncnc32)[C@H](O)[C@@H]1O [AB-MECA, reference compound] | did not inhibit | – | – | – | – | – | – | – | – | – | inhibition of human DNA topoisomerase IIα [1]: did not inhibit; inhibition of the ATPase activities of E. coli DNA gyrase (E. coli DNA gyrase [2]): did not inhibit; inhibition of human DNA topoisomerase I [3]: did not inhibit; inhibition of E. coli DNA gyrase activities (E. coli DNA gyrase [4]): does not inhibit; inhibition of Mtb DNA gyrase activities (Mtb DNA gyrase): did not inhibit; inhibition of E. coli DNA topoisomerase I [5]: did not inhibit |
| CCCCOC(=O)c1cc(O)c(O)c(O)c1 [Butyl gallate, butyl gallate] | – | > 64 µg/mL and > 200 µM | > 200 | > 100 | > 200 | > 200 µM | > 200 | > 100 | > 100 | > 100 | – |
| C[n+]1c(-c2ccc(/C=C/C=N/NC(=O)c3ccc(C(=O)N/N=C/c4ccc(-c5cn6ccccc6[n+]5C)cc4)cc3)cc2)cn2ccccc21 [Compound 261] | – | – | – | – | – | – | – | – | – | – | cytotoxicity against the NCI panel of 60 cancer cell lines [10]: no cytotoxicity; IC50 (in vitro): > 200 µM; MIC (S. aureus (ATCC 14775); [16]): > 200 µM; MIC (E. coli (ATCC 25922); ATCC25922, read-out: MIC (µM) Ec, E. coli strain ATCC25922): 50 µM; MIC (M. abscessus): 22.9 µM; IC50 (Mtb DNA gyrase): 9.3 µM; MIC (Mtb): 109 µM |
| C[n+]1c(-c2ccc(NC(=O)c3ccc(C(=O)Nc4ccc(-c5cn6ccccc6[n+]5C)cc4)cc3)cc2)cn2ccccc21 [Compound 263] | – | – | – | – | – | – | – | – | – | – | cytotoxicity against the NCI panel of 60 cancer cell lines [10]: no cytotoxicity; IC50 (in vitro): > 200 µM; MIC (S. aureus (ATCC 14775); [16]): 0.39 µM; MIC (M. abscessus): > 200 µM; IC50 (Mtb DNA gyrase): 7.7 µM; MIC (Mtb): 11.3 µM |
| CCCCCCCCCCCCOC(=O)c1cc(O)c(O)c(O)c1 [Dodecyl gallate, dodecyl gallate] | strongly inhibit | 8 µg/mL and 25 µM to 50 µM | 200 (≈ 67.7 µg/mL) | 15 | 200 | 67.7 µg/mL and 200 µM | > 200 | 13.8 | 36.9 | 50 | – |
| CNC(=O)[C@H]1O[C@@H](n2cnc3c(NCc4cccc(I)c4)ncnc32)[C@H](O)[C@@H]1O [IB-MECA, reference compound] | did not inhibit | – | – | – | – | – | – | – | – | – | inhibition of human DNA topoisomerase IIα [1]: did not inhibit; inhibition of the ATPase activities of E. coli DNA gyrase (E. coli DNA gyrase [2]): ATP competitive inhibitors; also recorded: inhibition; inhibition of human DNA topoisomerase I [3]: did not inhibit; IC50 (E. coli DNA gyrase [4]; [17]): 50.7 µM; inhibition of Mtb DNA gyrase activities (Mtb DNA gyrase): did not inhibit; inhibition of E. coli DNA topoisomerase I [5]: did not inhibit |
| CO[C@@H]1[C@@H](OC(N)=O)[C@@H](O)[C@H](Oc2ccc3c(O)c(NC(=O)c4ccc(O)c(CC=C(C)C)c4)c(=O)oc3c2C)OC1(C)C [Novobiocin, novobiocin, reference compound] | – | < 625 µM | 6.25 (≈ 3.83 µg/mL) | – | < 6.25 | < 6.25 µM | 158 | – | – | – | – |
| CCCCCCCCOC(=O)c1cc(O)c(O)c(O)c1 [Octyl gallate, octyl gallate] | strongly inhibit | 4 µg/mL and 12.5 µM to 25 µM | 50 (≈ 14.1 µg/mL) | 50 | 100 | 56.5 µg/mL and 200 µM | > 200 | 26 | 41.2 | 50 | MIC (MRSA; [18]): 56.5 µg/mL; MIC (E. coli (ATCC 25922); ATCC25922, read-out: MIC E. coli ATCC 25922, Table 7): 226 µg/mL |
| O=C(Oc1ccccc1)c1cc(O)c(O)c(O)c1 [Phenyl gallate, phenyl gallate] | – | > 64 µg/mL and > 200 µM | > 200 | > 100 | 200 | 64 µg/mL and 200 µM | > 200 | > 100 | > 100 | > 100 | MIC (MRSA; [18]): 64 µg/mL |
| O=C(O)C1=CC(=C(c2ccc(O)c(C(=O)O)c2)c2ccc(O)c(C(=O)O)c2)C=CC1=O [aurintricarboxylic acid] | – | – | – | – | – | – | – | – | – | – | inhibition at 5 µM (E. coli DNA gyrase [11]): > 40% |
| CNC(=O)[C@H]1O[C@@H](n2cnc3c(NCc4cccc(I)c4)nc(Cl)nc32)[C@H](O)[C@@H]1O [chloro-IB-MECA, reference compound] | did not inhibit | – | – | – | – | – | – | – | – | – | inhibition of human DNA topoisomerase IIα [1]: did not inhibit; inhibition of the ATPase activities of E. coli DNA gyrase (E. coli DNA gyrase [2]): ATP competitive inhibitors; also recorded: inhibition; inhibition of human DNA topoisomerase I [3]: did not inhibit; IC50 (E. coli DNA gyrase [4]; IC50 against E. coli DNA gyrase): 2.4 µM; IC50 (E. coli DNA gyrase [4]; [17]): < 5 µM; E. coli DNA gyrase-mediated DNA breaks and nicking (E. coli DNA gyrase [12]): did not DNA double stranded DNA breaks; inhibition of Mtb DNA gyrase activities (Mtb DNA gyrase): did not inhibit; inhibition of E. coli DNA topoisomerase I [5]: did not inhibit |
| CC1COc2c(N3CCN(C)CC3)c(F)cc3c(=O)c(C(=O)O)cn1c23 (stereo not shown) [ofloxacin] | – | – | – | – | – | – | – | – | – | – | inhibition at 5 µM (E. coli DNA gyrase [11]): > 40% |
| N[C@@H]1[C@H]2CN(c3nc4c(cc3F)c(=O)c(C(=O)O)cn4-c3ccc(F)cc3F)C[C@@H]12 [trovafloxacin] | – | – | – | – | – | – | – | – | – | – | inhibition activities against E. coli DNA gyrase (E. coli DNA gyrase [11]; LOPAC library, 5 µM): more than 40% |
